According to the supplement of paper PMC11061612:

Columns and labels:
Test in all cases: Bliss excess, mean over the matrix (fraction); higher = more synergy
[1] = tested on: DiFi (Colorectal Carcinoma)
Outline: (§1)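 Cell lines grown in DMEM/F12 or RPMI with 10% FBS were plated in 1536-well plates and held 24 hours at 37°C, 5% CO2 before 72 hours of exposure to two-drug dose matrices, with DMSO typically at 0.2%. CellTiter-Glo 2.0 luminescence gave viability, which was converted to inhibition. Vehicle wells were set to 0 and blank wells to 1. Combination Emax is the second-highest inhibition in the matrix, and Bliss excess is the observed combination effect minus the expected EA + EB − EA·EB, where EA and EB are the single-agent effects.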

[2] = tested on: SW837 (Colorectal Carcinoma)
Outline: as §1

[3] = tested on: GR-ST (B-Lymphoblastic Leukemia)
Outline: as §1

MEL-JUSO (Melanoma) = tested on: MEL-JUSO (Melanoma)
Outline: as §1

LN-18 (Glioblastoma) = tested on: LN-18 (Glioblastoma)
Outline: as §1

[4] = tested on: TOV-112D (Ovarian Carcinoma)
Outline: as §1

[5] = tested on: SR (Other Blood Carcinomas)
Outline: as §1

[6] = tested on: SW1417 (Colorectal Carcinoma)
Outline: as §1

[7] = tested on: MOLT-16 (T-Lymphoblastic Leukemia)
Outline: as §1

[8] = tested on: P12-ICHIKAWA (T-Lymphoblastic Leukemia)
Outline: as §1

[9] = tested on: EVSA-T (Breast Carcinoma)
Outline: as §1

WM-115 (Melanoma) = tested on: WM-115 (Melanoma)
Outline: as §1

[10] = tested on: KCL-22 (Chronic Myelogenous Leukemia)
Outline: as §1

NCI-H2818 (Mesothelioma) = tested on: NCI-H2818 (Mesothelioma)
Outline: as §1

[11] = tested on: BL-41 (Burkitt's Lymphoma)
Outline: as §1

[12] = tested on: KARPAS-45 (T-Lymphoblastic Leukemia)
Outline: as §1

[13] = tested on: MS751 (Cervical Carcinoma)
Outline: as §1

[14] = tested on: HL-60 (Acute Myeloid Leukemia)
Outline: as §1

ES8 (Ewing's Sarcoma) = tested on: ES8 (Ewing's Sarcoma)
Outline: as §1

[15] = tested on: COLO-678 (Colorectal Carcinoma)
Outline: as §1

Row | Compound | Bliss excess [1] | Bliss excess [2] | Bliss excess [3] | Bliss excess (MEL-JUSO (Melanoma)) | Bliss excess (LN-18 (Glioblastoma)) | Bliss excess [4] | Bliss excess [5] | Bliss excess [6] | Bliss excess [7] | Bliss excess [8] | Bliss excess [9] | Bliss excess (WM-115 (Melanoma)) | Bliss excess [10] | Bliss excess (NCI-H2818 (Mesothelioma)) | Bliss excess [11] | Bliss excess [12] | Bliss excess [13] | Bliss excess [14] | Bliss excess (ES8 (Ewing's Sarcoma)) | Bliss excess [15]
1 | COc1nnc2ccc(N3CCC(c4ccc(OCCN5CCN(C)C(=O)[C@H]5C)cc4)CC3)nn12 [AZD5153] + C[C@@H]1COCCN1C2=NC(=NC(=C2)C3(CC3)[S@](=N)(=O)C)C4=C5C=CNC5=NC=C4 [AZD6738] (first compound max 1 µM, 7x7, partner max 10 µM) | 0.0524 | -0.0066 | -0.0956 | 0.0624 | -0.02 | 0.0306 | -0.016 | 0.0052 | -0.0105 | 0.055 | 0.0026 | -0.0276 | -0.0188 | -0.0383 | -0.0562 | -0.0191 | 0.0833 | -0.0003 | -0.0096 | 0.0502
2 | COc1nnc2ccc(N3CCC(c4ccc(OCCN5CCN(C)C(=O)[C@H]5C)cc4)CC3)nn12 [AZD5153] + Cc1c2c(nn1C)CSCc1cc(n(C)n1)CSc1cc(c3ccccc3c1)OCCCc1c(C(=O)O)n(C)c3c-2c(Cl)ccc13 [AZD5991] (first compound max 1 µM, 7x7, partner max 1 µM) | -0.0066 | -0.0411 | -0.027 | -0.0507 | -0.0751 | 0.0347 | -0.0275 | -0.0252 | -0.0072 | 0.0813 | 0.003 | -0.0256 | -0.0633 | 0.0183 | -0.025 | 0.0139 | 0.0038 | -0.0038 | 0.0357 | -0.0476
3 | COc1nnc2ccc(N3CCC(c4ccc(OCCN5CCN(C)C(=O)[C@H]5C)cc4)CC3)nn12 [AZD5153] + Cn1cnc2c(F)c(Nc3ccc(Br)cc3Cl)c(C(=O)NOCCO)cc21 [Selumetinib] (first compound max 1 µM, 7x7, partner max 10 µM) | -0.0011 | -0.0187 | -0.0578 | 0.0889 | 0.0152 | 0.0303 | -0.0614 | 0.0496 | -0.0353 | 0.0746 | -0.031 | 0.15 | 0.0841 | -0.0031 | -0.0526 | 0.0362 | 0.0385 | 0.0707 | 0.0303 | -0.0382
4 | Cc1c2c(nn1C)CSCc1cc(n(C)n1)CSc1cc(c3ccccc3c1)OCCCc1c(C(=O)O)n(C)c3c-2c(Cl)ccc13 [AZD5991] + C1CN(CCC1(C(=O)N[C@@H](CCO)C2=CC=C(C=C2)Cl)N)C3=NC=NC4=C3C=CN4 [Capivasertib] (first compound max 1 µM, 7x7, partner max 3 µM) | 0.0384 | -0.0191 | -0.0244 | -0.0203 | 0.0306 | -0.0181 | 0.0447 | -0.0021 | -0.0113 | 0.039 | -0.0074 | 0.0165 | 0.0067 | 0.0054 | 0.0066 | 0.0484 | 0.0425 | -0.0315 | 0.0627 | -0.0078
5 | Cc1c2c(nn1C)CSCc1cc(n(C)n1)CSc1cc(c3ccccc3c1)OCCCc1c(C(=O)O)n(C)c3c-2c(Cl)ccc13 [AZD5991] + C=CCn1c(=O)c2cnc(Nc3ccc(N4CCN(C)CC4)cc3)nc2n1-c1cccc(C(C)(C)O)n1 [AZD1775] (first compound max 1 µM, partner max 1 µM) | 0.0285 | 0 | -0.0402 | -0.0033 | -0.0087 | -0.017 | -0.045 | -0.0548 | 0.01 | 0.0528 | 0.0165 | -0.0328 | -0.035 | 0.112 | -0.0133 | -0.0189 | -0.0155 | -0.0149 | 0.0203 | -0.0614
6 | Cc1c2c(nn1C)CSCc1cc(n(C)n1)CSc1cc(c3ccccc3c1)OCCCc1c(C(=O)O)n(C)c3c-2c(Cl)ccc13 [AZD5991] + CCN(CCO)CCCOc1ccc2c(Nc3cc(CC(=O)Nc4cccc(F)c4)[nH]n3)ncnc2c1 [AZD2811] (first compound max 1 µM, 7x7, partner max 1 µM) | -0.0077 | -0.0341 | -0.0742 | 0.0389 | -0.029 | 0.0906 | 0.178 | -0.0139 | -0.0114 | -0.0164 | 0.0959 | -0.0726 | 0.0736 | -0.0116 | -0.0295 | -0.0409 | 0.0367 | -0.0001 | 0.012 | -0.0673
7 | Cc1c2c(nn1C)CSCc1cc(n(C)n1)CSc1cc(c3ccccc3c1)OCCCc1c(C(=O)O)n(C)c3c-2c(Cl)ccc13 [AZD5991] + CN(C)CCCOc1ccc(-c2ccc3ncc4c(c3c2)n(C2CCOCC2)c(=O)n4C)cn1 [AZD0156] (first compound max 1 µM, 7x7, partner max 1 µM) | -0.0112 | 0.0004 | -0.112 | 0.0023 | 0.0444 | -0.0265 | 0.0246 | 0.0308 | -0.0302 | 0.108 | -0.0304 | -0.0136 | 0.0191 | -0.0052 | 0.0168 | -0.0403 | 0.0099 | 0.006 | 0.0224 | -0.0427
8 | Cc1c2c(nn1C)CSCc1cc(n(C)n1)CSc1cc(c3ccccc3c1)OCCCc1c(C(=O)O)n(C)c3c-2c(Cl)ccc13 [AZD5991] + C[C@@H]1COCCN1C2=NC(=NC(=C2)C3(CC3)[S@](=N)(=O)C)C4=C5C=CNC5=NC=C4 [AZD6738] (first compound max 1 µM, 7x7, partner max 10 µM) | 0.0302 | 0.0152 | -0.129 | 0.0406 | 0.037 | 0.0477 | 0.0941 | -0.0352 | 0.0043 | 0.0312 | -0.0015 | 0.0041 | -0.0163 | 0.0148 | -0.0045 | 0.0077 | 0.0565 | -0.0069 | 0.0029 | -0.0899
9 | Cc1c2c(nn1C)CSCc1cc(n(C)n1)CSc1cc(c3ccccc3c1)OCCCc1c(C(=O)O)n(C)c3c-2c(Cl)ccc13 [AZD5991] + Cc1cc2ncnn2cc1Nc1ncc2c(n1)n(C1CCOCC1)c(=O)n2C [AZD7648] (first compound max 1 µM, 7x7, partner max 10 µM) | -0.0448 | -0.0454 | -0.149 | -0.0453 | -0.025 | -0.0214 | 0.0257 | 0.0054 | -0.023 | -0.0167 | -0.0156 | -0.11 | -0.0086 | -0.0757 | 0.029 | -0.0163 | -0.0396 | 0.0014 | 0.0038 | -0.0416
10 | Cc1c2c(nn1C)CSCc1cc(n(C)n1)CSc1cc(c3ccccc3c1)OCCCc1c(C(=O)O)n(C)c3c-2c(Cl)ccc13 [AZD5991] + Cn1cnc2c(F)c(Nc3ccc(Br)cc3Cl)c(C(=O)NOCCO)cc21 [Selumetinib] (first compound max 1 µM, 7x7, partner max 3 µM) | 0.0064 | 0.0024 | -0.0495 | 0.0046 | 0.0745 | 0.0038 | -0.0007 | -0.0015 | -0.0205 | 0.0419 | 0.0136 | -0.0114 | 0.078 | -0.0458 | -0.0206 | 0.011 | 0.067 | 0.0587 | -0.0171 | -0.0226
11 | NC1(C(=O)N[C@@H](CCO)c2ccc(Cl)cc2)CCN(c2ncnc3[nH]ccc23)CC1 [Capivasertib] + CC(=O)c1c(C)c2cnc(Nc3ccc(N4CCNCC4)cn3)nc2n(C2CCCC2)c1=O [Palbociclib] (first compound max 10 µM, 7x7, partner max 10 µM) | -0.0394 | -0.0531 | -0.0067 | -0.0137 | 0.0368 | 0.0029 | 0.0289 | 0.0067 | -0.0011 | -0.0096 | 0.0168 | -0.0469 | 0.0438 | -0.0025 | -0.0275 | 0.0327 | -0.0222 | -0.0406 | 0.0848 | -0.0295
12 | NC1(C(=O)N[C@@H](CCO)c2ccc(Cl)cc2)CCN(c2ncnc3[nH]ccc23)CC1 [Capivasertib] + CC(C)n1c(=O)n(C)c2cnc3cc(F)c(-c4ccc(OCCCN5CCCCC5)nc4)cc3c21 [AZD1390] (first compound max 10 µM, 7x7, partner max 0.3 µM) | -0.0436 | -0.0461 | -0.0449 | -0.0784 | -0.0325 | -0.0276 | -0.0452 | -0.0394 | -0.0658 | -0.018 | -0.0326 | -0.0368 | -0.0116 | -0.0447 | -0.193 | -0.0374 | 0.0033 | -0.0656 | -0.0318 | -0.0754
13 | NC1(C(=O)N[C@@H](CCO)c2ccc(Cl)cc2)CCN(c2ncnc3[nH]ccc23)CC1 [Capivasertib] + CCN(CCO)CCCOc1ccc2c(Nc3cc(CC(=O)Nc4cccc(F)c4)[nH]n3)ncnc2c1 [AZD2811] (first compound max 10 µM, 7x7, partner max 1 µM) | -0.0475 | -0.0646 | 0.0222 | -0.0083 | -0.022 | 0.0175 | -0.0053 | -0.0478 | -0.0183 | -0.014 | 0.0219 | -0.0223 | 0.0544 | -0.0676 | -0.123 | -0.0426 | 0.0515 | -0.0819 | -0.0394 | -0.0218
14 | NC1(C(=O)N[C@@H](CCO)c2ccc(Cl)cc2)CCN(c2ncnc3[nH]ccc23)CC1 [Capivasertib] + COc1nnc2ccc(N3CCC(c4ccc(OCCN5CCN(C)C(=O)[C@H]5C)cc4)CC3)nn12 [AZD5153] (first compound max 10 µM, 7x7, partner max 1 µM) | -0.056 | -0.0301 | -0.0565 | -0.0049 | 0.0494 | 0.0088 | -0.0166 | -0.0135 | 0.0458 | 0.0553 | -0.033 | 0.0031 | 0.0441 | 0.0025 | 0.036 | 0.0133 | -0.0065 | 0.0346 | 0.0894 | -0.0688
